Test [1] deals with Protein kinase C alpha type (Homo sapiens) (UniProt P17252). Description: Inhibition of human PKCalpha assessed as residual activity at 1 uM relative to control.
Test [2] concerns the target RAC-alpha serine/threonine-protein kinase (Homo sapiens) (UniProt P31749). Description: Inhibition of human PKBalpha assessed as residual activity at 1 uM relative to control.
Test [3] deals with Ribosomal protein S6 kinase alpha-5 (Homo sapiens) (UniProt O75582). Description: Inhibition of human MSK1 assessed as residual activity at 1 uM relative to control.
For test [4], the target named is Mitogen-activated protein kinase 8 (Homo sapiens) (UniProt P45983). In words: Inhibition of human JNK1 assessed as residual activity at 1 uM relative to control.
Test [5] addresses Calcium/calmodulin-dependent protein kinase type 1 (Homo sapiens) (UniProt Q14012). Description: Inhibition of human CAMK1 assessed as residual activity at 1 uM relative to control.
Test [6] has as its target Ribosomal protein S6 kinase beta-1 (Homo sapiens) (UniProt P23443). In words: Inhibition of human S6K1 assessed as residual activity at 10 uM relative to control.
Test [7] deals with Ephrin type-A receptor 2 (Homo sapiens) (UniProt P29317). Description: Inhibition of human EPHA2 assessed as residual activity at 10 uM relative to control.
Test [8] has as its target Calcium/calmodulin-dependent protein kinase type 1 (Homo sapiens) (UniProt Q14012). In words: Inhibition of human CAMK1 assessed as residual activity at 10 uM relative to control.
Test [9] concerns the target Proto-oncogene tyrosine-protein kinase Src (Homo sapiens) (UniProt P12931). Description: Inhibition of human SRC assessed as residual activity at 1 uM relative to control.
Test [10] concerns the target Serine/threonine-protein kinase pim-1 (Homo sapiens) (UniProt P11309). Description: Inhibition of human PIM1 assessed as residual activity at 1 uM relative to control.
For test [11], the target named is Mitogen-activated protein kinase 9 (Homo sapiens) (UniProt P45984). Description: Inhibition of human JNK2 assessed as residual activity at 1 uM relative to control.
Test [12] addresses Insulin-like growth factor 1 receptor (Homo sapiens) (UniProt P08069). In words: Inhibition of human IGF-1R assessed as residual activity at 1 uM relative to control.
For test [13], the target named is Homeodomain-interacting protein kinase 2 (Homo sapiens) (UniProt Q9H2X6). In words: Inhibition of human HIPK2 assessed as residual activity at 1 uM relative to control.
Sequence of Homeodomain-interacting protein kinase 2 (Homo sapiens) (Q9H2X6 whole entry, looked up): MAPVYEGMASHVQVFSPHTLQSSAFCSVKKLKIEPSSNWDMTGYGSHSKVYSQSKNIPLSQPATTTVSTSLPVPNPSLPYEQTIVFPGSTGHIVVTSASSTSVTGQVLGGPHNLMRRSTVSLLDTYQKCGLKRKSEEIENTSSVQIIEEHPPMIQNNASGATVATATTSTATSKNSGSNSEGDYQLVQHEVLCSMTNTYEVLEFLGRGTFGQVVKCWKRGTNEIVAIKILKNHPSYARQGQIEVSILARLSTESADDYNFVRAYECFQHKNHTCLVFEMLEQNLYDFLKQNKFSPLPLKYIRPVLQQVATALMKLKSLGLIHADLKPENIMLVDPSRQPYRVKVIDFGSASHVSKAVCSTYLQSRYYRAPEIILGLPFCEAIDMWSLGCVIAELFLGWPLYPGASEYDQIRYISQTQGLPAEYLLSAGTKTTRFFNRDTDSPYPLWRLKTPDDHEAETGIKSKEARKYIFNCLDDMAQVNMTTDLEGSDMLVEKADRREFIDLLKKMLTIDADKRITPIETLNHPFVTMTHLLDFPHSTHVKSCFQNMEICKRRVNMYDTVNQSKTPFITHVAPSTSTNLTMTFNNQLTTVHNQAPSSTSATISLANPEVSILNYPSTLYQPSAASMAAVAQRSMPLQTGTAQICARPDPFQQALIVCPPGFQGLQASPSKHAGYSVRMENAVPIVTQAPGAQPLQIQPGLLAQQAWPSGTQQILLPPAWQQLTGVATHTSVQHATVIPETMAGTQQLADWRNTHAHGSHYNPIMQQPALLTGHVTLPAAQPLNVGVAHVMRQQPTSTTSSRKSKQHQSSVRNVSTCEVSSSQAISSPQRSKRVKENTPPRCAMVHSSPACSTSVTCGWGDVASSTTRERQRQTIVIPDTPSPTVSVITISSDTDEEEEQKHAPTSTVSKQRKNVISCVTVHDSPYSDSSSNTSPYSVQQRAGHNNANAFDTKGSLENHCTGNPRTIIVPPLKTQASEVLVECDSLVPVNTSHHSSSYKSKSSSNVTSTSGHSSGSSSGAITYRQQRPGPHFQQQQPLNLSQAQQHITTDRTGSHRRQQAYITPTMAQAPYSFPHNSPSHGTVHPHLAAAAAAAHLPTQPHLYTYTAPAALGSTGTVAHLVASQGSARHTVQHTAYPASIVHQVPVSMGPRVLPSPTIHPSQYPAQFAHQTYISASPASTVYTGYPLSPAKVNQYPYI
The target of test [14] is Myosin light chain kinase, smooth muscle (Homo sapiens) (UniProt Q15746). Description: Inhibition of human smMLCK assessed as residual activity at 10 uM relative to control.
Test [15] concerns the target T1, Serine/threonine-protein kinase D1 (Homo sapiens) (UniProt Q15139).
T1 sequence (whole entry): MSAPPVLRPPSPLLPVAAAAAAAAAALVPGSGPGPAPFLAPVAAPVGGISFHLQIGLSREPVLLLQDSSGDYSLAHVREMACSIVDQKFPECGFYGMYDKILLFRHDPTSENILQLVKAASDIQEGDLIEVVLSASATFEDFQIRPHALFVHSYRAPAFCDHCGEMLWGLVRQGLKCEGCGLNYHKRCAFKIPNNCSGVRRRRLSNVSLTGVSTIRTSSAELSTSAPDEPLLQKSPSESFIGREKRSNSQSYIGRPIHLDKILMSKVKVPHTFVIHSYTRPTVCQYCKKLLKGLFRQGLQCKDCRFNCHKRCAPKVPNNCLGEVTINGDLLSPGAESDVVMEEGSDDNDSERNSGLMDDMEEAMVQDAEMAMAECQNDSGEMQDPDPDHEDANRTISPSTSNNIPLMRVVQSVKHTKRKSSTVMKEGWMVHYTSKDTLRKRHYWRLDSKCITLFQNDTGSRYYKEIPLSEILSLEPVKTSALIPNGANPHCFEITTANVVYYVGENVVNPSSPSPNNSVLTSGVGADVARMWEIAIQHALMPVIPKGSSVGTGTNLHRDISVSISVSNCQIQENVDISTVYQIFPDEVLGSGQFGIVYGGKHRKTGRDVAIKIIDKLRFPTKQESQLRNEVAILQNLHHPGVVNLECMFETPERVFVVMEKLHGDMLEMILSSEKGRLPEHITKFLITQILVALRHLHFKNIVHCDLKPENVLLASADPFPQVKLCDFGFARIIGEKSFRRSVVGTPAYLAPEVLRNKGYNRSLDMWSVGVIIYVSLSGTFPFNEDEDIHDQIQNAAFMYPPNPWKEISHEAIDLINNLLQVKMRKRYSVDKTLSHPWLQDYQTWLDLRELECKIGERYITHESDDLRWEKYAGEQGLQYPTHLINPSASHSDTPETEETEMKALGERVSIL
In words: Inhibition of human PKD1 assessed as residual activity at 10 uM relative to control.

The target in test [16] is T2, Serine/threonine-protein kinase Nek2 (Homo sapiens) (UniProt P51955).
T2 sequence (whole entry): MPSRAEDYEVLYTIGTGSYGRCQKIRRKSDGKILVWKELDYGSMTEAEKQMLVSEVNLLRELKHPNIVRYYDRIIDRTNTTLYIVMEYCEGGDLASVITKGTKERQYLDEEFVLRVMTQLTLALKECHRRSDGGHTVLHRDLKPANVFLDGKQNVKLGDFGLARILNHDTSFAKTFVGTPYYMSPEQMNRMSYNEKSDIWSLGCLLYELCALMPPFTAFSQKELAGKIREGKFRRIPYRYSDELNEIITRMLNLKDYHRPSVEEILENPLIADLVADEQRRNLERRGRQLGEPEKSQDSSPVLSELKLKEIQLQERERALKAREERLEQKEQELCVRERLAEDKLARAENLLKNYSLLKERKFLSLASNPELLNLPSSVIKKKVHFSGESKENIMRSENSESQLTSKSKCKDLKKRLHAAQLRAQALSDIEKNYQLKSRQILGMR
Description: Inhibition of human NEK2alpha assessed as residual activity at 10 uM relative to control.

The target of test [17] is Maternal embryonic leucine zipper kinase (Homo sapiens) (UniProt Q14680). Description: Inhibition of human MELK assessed as residual activity at 10 uM relative to control.
Test [18] addresses Tyrosine-protein kinase BTK (Homo sapiens) (UniProt Q06187). Description: Inhibition of human BTK assessed as residual activity at 10 uM relative to control.
The target of test [19] is 3-phosphoinositide-dependent protein kinase 1 (Homo sapiens) (UniProt O15530). In words: Inhibition of human PDK1 assessed as residual activity at 1 uM relative to control.
Sequence of 3-phosphoinositide-dependent protein kinase 1 (Homo sapiens) (O15530 whole entry, looked up): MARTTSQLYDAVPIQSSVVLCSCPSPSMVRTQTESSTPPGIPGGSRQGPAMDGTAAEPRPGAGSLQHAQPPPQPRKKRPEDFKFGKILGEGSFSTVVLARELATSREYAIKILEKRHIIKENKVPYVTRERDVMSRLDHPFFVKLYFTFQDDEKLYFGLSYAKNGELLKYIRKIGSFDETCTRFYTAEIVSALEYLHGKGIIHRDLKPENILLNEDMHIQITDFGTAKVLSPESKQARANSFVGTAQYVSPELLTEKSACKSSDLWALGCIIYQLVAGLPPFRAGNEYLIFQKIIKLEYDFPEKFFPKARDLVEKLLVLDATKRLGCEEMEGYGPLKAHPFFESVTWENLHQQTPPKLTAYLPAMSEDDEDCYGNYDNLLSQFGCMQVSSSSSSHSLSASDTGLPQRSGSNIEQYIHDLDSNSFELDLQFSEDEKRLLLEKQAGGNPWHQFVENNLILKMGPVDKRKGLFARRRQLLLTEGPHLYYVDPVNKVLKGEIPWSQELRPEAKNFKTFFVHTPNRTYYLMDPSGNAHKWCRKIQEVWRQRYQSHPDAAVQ

Consider 3 compounds from ChEMBL document CHEMBL2429821, “A Casein kinase 1/Checkpoint kinase 1 pyrazolo-pyridine protein kinase inhibitor as novel activator of the p53 pathway” (Bioorg Med Chem Lett, 2013).

Sequence of Proto-oncogene tyrosine-protein kinase Src (Homo sapiens) (P12931 2-536 limits assumed): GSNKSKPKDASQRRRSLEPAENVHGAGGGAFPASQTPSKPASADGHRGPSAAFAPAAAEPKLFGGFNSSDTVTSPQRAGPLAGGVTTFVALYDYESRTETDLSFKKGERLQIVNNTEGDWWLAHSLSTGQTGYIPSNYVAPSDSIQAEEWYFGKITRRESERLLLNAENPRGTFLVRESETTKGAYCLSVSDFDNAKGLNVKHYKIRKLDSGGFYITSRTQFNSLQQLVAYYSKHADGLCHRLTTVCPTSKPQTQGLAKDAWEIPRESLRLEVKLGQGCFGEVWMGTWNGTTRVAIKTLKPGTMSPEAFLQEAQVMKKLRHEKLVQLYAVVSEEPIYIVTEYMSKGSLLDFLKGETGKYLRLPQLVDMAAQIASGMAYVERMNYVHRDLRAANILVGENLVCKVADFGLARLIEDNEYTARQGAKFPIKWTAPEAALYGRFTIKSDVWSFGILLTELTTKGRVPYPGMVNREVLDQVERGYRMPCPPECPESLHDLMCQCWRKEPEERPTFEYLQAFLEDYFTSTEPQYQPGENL
Sequence of Ribosomal protein S6 kinase beta-1 (Homo sapiens) (P23443 whole entry, looked up): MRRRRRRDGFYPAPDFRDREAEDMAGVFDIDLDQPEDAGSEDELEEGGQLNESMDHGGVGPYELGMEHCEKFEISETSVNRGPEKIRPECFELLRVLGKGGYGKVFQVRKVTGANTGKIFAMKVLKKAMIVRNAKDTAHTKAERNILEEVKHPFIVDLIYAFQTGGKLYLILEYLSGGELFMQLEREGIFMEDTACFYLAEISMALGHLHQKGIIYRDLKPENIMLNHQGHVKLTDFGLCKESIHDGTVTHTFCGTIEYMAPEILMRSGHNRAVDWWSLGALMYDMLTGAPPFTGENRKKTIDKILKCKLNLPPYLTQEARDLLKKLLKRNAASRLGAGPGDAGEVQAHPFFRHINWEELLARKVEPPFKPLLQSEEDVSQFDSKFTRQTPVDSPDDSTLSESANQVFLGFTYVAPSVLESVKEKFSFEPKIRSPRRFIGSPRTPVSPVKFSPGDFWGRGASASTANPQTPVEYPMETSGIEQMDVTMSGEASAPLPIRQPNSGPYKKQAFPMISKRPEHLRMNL
Sequence of Insulin-like growth factor 1 receptor (Homo sapiens) (P08069 31-736 limits assumed): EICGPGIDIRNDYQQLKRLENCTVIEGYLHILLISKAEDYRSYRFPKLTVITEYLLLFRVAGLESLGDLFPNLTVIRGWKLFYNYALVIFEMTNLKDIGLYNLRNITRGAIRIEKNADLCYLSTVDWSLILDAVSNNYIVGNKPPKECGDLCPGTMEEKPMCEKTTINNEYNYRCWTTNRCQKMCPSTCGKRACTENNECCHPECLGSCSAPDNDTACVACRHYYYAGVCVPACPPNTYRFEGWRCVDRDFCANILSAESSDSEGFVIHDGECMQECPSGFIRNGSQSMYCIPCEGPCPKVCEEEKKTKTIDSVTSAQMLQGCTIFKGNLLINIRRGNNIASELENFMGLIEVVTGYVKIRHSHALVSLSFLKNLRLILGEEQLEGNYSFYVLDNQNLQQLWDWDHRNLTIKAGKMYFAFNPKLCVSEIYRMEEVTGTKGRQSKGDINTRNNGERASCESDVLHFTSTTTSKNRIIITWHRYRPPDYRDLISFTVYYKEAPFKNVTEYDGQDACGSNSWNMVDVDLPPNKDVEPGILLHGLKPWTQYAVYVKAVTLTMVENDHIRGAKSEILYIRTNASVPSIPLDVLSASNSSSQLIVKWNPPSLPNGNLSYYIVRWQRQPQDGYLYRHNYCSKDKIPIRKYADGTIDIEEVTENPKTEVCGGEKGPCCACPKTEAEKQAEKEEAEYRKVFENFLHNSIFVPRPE
Sequence of Insulin-like growth factor 1 receptor (Homo sapiens) (P08069 741-1367 limits assumed): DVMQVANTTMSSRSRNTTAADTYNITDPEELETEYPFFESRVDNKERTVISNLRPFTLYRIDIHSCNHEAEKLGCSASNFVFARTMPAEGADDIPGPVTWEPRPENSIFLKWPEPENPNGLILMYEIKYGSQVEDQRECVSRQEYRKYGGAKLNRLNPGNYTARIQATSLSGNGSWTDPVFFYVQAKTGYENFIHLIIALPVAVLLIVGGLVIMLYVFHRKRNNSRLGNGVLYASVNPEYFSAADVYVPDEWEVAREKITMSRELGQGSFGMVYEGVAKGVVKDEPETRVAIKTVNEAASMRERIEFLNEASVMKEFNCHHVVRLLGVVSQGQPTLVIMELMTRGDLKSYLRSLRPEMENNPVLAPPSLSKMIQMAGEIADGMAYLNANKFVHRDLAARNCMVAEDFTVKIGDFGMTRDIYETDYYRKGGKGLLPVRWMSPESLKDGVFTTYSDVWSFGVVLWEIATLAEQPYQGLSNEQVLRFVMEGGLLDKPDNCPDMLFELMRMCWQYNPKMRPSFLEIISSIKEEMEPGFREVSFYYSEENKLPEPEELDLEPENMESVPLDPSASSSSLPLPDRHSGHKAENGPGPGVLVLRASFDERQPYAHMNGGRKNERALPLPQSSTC
Sequence of RAC-alpha serine/threonine-protein kinase (Homo sapiens) (P31749 whole entry): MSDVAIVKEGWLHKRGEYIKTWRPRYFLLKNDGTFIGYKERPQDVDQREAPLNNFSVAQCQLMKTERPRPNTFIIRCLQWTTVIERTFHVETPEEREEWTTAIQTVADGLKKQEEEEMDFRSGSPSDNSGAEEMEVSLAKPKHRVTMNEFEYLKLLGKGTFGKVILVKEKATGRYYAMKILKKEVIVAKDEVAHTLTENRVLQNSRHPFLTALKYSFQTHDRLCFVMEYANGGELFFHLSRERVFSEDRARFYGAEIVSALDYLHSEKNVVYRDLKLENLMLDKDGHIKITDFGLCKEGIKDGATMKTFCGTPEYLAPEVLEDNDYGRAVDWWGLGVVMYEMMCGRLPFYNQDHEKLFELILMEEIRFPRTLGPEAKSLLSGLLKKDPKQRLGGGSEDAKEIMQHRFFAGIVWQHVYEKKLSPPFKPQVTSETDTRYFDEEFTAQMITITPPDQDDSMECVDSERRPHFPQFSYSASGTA
Sequence of Serine/threonine-protein kinase pim-1 (Homo sapiens) (P11309 whole entry, looked up): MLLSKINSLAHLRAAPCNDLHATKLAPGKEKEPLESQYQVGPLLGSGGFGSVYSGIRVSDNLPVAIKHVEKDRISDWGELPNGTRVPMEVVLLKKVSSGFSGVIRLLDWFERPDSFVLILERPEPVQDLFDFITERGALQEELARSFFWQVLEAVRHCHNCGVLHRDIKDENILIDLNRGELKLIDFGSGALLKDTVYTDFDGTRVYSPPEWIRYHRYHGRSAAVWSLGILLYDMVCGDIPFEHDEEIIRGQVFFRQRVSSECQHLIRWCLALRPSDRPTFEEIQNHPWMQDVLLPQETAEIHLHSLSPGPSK

For `CC(=O)Nc1nccc(-c2c(-c3ccccc3)noc2C)n1`, the Activity was 94% in test [1]; 112% in [2]; 82.7% in test [3]; 67% in [4]; 103% in test [5]; 99.9% in test [6]. Moreover, the Activity in test [7] worked out at 91.9%; in test [8] it was 71%; in test [9] it was 98.3%; in [10] it was 105%; in test [11], 85.2%; in [12], 82.7%. Besides, the Activity in test [13] amounted to 98.9%; in test [14], 79.3%; in [15], 75.3%; in [16], 82.7%; in [17] it was 106%; in test [18], 99.7%. In test [19], the Activity is 91.4%.

As to `CCCC(=O)Nc1n[nH]c2ncc(-c3cccnc3)cc12`, the Activity in test [1] stood at 79%; in test [2], 94%; in test [3] it was 70%; in test [4], 97%; in test [5] it was 93%; in [6], 88%. In addition, the Activity turned out to be 88% in test [7]; 83% in test [8]; 75% in test [9]; 89% in [10]; 99% in test [11]; 88% in test [12]. Further, the Activity in [13] came to 72%; in test [14], 62%; in test [15] it was 99%; in [16] it was 90%; in test [17] it was 64%; in [18] it was 69%. For the same compound, the Activity in [19] turned out to be 108%.

Turning to `CC(=O)Nc1cccc(-c2cnc3[nH]nc(C)c3c2)c1`, the Activity came to 124% in test [1]; 89.5% in [2]; 95.3% in test [3]; 93.3% in test [4]; 111% in [5]; 69.8% in [6]. The Activity in test [7] is 69.5%; in test [8], 68.4%; in test [9], 65%; in test [10] it was 73.1%; in test [11], 98.5%; in test [12], 70.8%. For the same compound, the Activity was 72% in test [13]; 45.6% in test [14]; 44.3% in test [15]; 10.5% in [16]; 38.9% in [17]; 16.5% in test [18]. The Activity in test [19] turned out to be 95.8%.
